According to patent US20070249561A1, “Pharmacological method for treatment of neuropathic pain” (priority 2006, published 2007):

Experiments:
[1] = system: spared nerve injury (SNI) model of neuropathic pain in mice; assay: Mechanical threshold (von Frey) to hindpaw withdrawal in SNI mice; type: in vivo, mouse; conditions: intrathecal
Method: (§1) Male CD1 mice (Charles Rivers Laboratories, Inc) were used, and weighed 18-22 g at the time of surgery, and 29-32 g during pharmacological testing. To produce the SNI model in mice, surgical procedures essentially identical to those used in rat were used. Unlike the rat SNI model, where an indwelling catheter was inserted surgically, vehicle or drugs were injected directly into the intrathecal space of the unanesthetized mouse using the classical method of Hylden and Wilcox (“Intrathecal morphine in mice: a new technique” Eur. J. Pharmacol. 17:313-6, 1980) to administer drugs to the intrathecal space dorsal to but not within the spinal cord. Briefly, a piece of cloth was used to restrain the mouse by cradling the iliac crest between one's thumb and forefinger. The L5-L6 spinal bones were located, and a 0.5 inch 30G hypodermic needle was inserted perpendicularly into the L4-L5 interspinous space. Upon insertion, the needle was angled about 30°-45° from the coronal (frontal) plane, and then advanced slightly. The needle angle was then adjusted gently, until paw or tail movement was evoked, whereupon the needle was held in position and 5 μL of saline or drug was administered via a 25 μL Hamilton syringe.
(§2) Data are presented as mean±standard error of the mean (SEM). Differences between means were analyzed by two-way repeated-measures analysis of variance (ANOVA), with drug treatment as the between-subjects variable and time as the repeated measure. If statistically significant differences (p<0.05) were detected, the analyses were followed by post hoc t-tests.
(§3) The procedures used to evaluate behavioral signs of mechanical and cold allodynia were essentially the same for rats as they were for mice. Animals were acclimated to a stainless steel grid within individual Plexiglas boxes for 30-60 minutes, and then tested for mechanical allodynia and cold allodynia. In all animals, mechanical allodynia was assessed using von Frey (VF) filaments (Stoelting, Inc), and was done before assessing cold allodynia.
To assess mechanical allodynia, the plantar region of each hind paw was stimulated with an incremental series of 8 different VF hairs (monofilaments of logarithmically varying stiffness). In SNI rats and mice, the stimulus region was localized to the sural innervation territory of the lateral aspect of the plantar hind paw. The 50% withdrawal threshold (“mechanical” threshold) was determined using the up-down method of Dixon, modified by Chaplan et al. (Chaplan et al., 1994). First, an intermediate von Frey monofilament (e.g., for rats, number 4.31 was used, which exerts a force of 2.0 g) was applied perpendicular to the plantar skin, causing a slight bending of the hair. […]

[2] = system: spared nerve injury (SNI) model of neuropathic pain in mice; assay: Cold allodynia (acetone drop, paw withdrawal duration) in SNI mice; type: in vivo, mouse; conditions: intrathecal
Method: as §1, §2, §3
Cold allodynia was evaluated by applying a drop of acetone to the plantar paw of control and SNI rats. Acetone was applied via a syringe connected to PE-90 tubing, flared at the tip to a diameter of 3.5 mm. Surface tension maintained the volume of the drop to 10-12 μL. The length of time the animal lifted or shook its paw was recorded. The duration of paw withdrawal was recorded for 30 seconds, and three observations were averaged. […] In such cases acetone testing was either terminated, or that data was not included in the final analysis.

[3] = Heneka et al. 2005; Maeshiba et al. 1997; cited from earlier work

## CCc1ccc(CCOc2ccc(CC3SC(=O)NC3=O)cc2)nc1 (stereo not drawn) [pioglitazone, 5-[[4-[2-(5-ethylpyridin-2-yl)ethoxy]phenyl]methyl]thiazolidine-2,4-dione]
[1]; 150 μg dose
  onset of anti-allodynic effect after injection (mechanical threshold): ≤ 30 min
  time after which anti-allodynic effect dissipated (mechanical threshold): 90 min
  time of peak anti-allodynic effect after injection (mechanical threshold): 30 min
[1]; dose series
  effect on behavioral signs of neuropathic pain (threshold to hindpaw withdrawal, von Frey): reduced behavioral signs of neuropathic pain in a dose-dependent and reversible manner
[2]
  onset of analgesic effects after injection (cold allodynia): ≤ 30 min
  time of most pronounced analgesic effects (cold allodynia): approximately 60 minutes
  time within which analgesic effects began to dissipate (cold allodynia): ≤ 90 min
[2]; dose series
  effect on cold hypersensitivity (paw withdrawal duration after acetone): decreased cold hypersensitivity in a dose-dependent and reversible manner
[3]
  ability to cross the blood brain barrier: can cross the blood brain barrier
